Laboratory results from ChEMBL document CHEMBL1201862, “PubChem BioAssay data set” (2004).
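Where inhibition never reached the appropriate level, the endpoint shown equals the highest concentration tested. Otherwise, values were interpolated linearly from a five-concentration, 48-hour dose response in 96-well plates. GI50 is the concentration that inhibits growth by half.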 Calls of active or inactive are those of the source. Cut-off read from the data, not from the text of the source: active = GI50 up to about 1.1 µM and inactive = higher.

How the values were obtained:
Test in all cases: growth of human tumour cells (NCI), 48 h
HT-29 = system: HT-29
CAKI-1 = system: CAKI-1
SNB-19 = system: SNB-19
RPMI-8226 = system: RPMI-8226
SW-620 = system: SW-620
SK-OV-3 = system: SK-OV-3
SK-MEL-2 = system: SK-MEL-2
RXF 393 = system: RXF 393
SK-MEL-5 = system: SK-MEL-5
UO-31 = system: UO-31
786-0 = system: 786-0
Malme-3M = system: Malme-3M
EKVX = system: EKVX
A498 = system: A498
ACHN = system: ACHN
OVCAR-5 = system: OVCAR-5
HCT-116 = system: HCT-116
NCI-H522 = system: NCI-H522
LOX IMVI = system: LOX IMVI
NCI/ADR-RES = system: NCI/ADR-RES

Measured: GI50

CCn1c2c(c3ccccc31)[C@@H](c1ccc(Cl)cc1)CC1C(=O)N(c3ccccc3)C(=O)C21 (some centres not stated)
inactive: HT-29 65.5 µM | CAKI-1 > 100 µM | SNB-19 > 100 µM | RPMI-8226 65 µM | SW-620 > 100 µM | SK-OV-3 > 100 µM | SK-MEL-2 91.8 µM | RXF 393 38 µM | SK-MEL-5 > 100 µM | UO-31 > 100 µM | 786-0 > 100 µM | Malme-3M 70.6 µM | EKVX > 100 µM | A498 69.7 µM | ACHN 58.6 µM | OVCAR-5 > 100 µM | HCT-116 37.6 µM | NCI-H522 80.2 µM | LOX IMVI > 100 µM

O=C(CC1(O)C(=O)Nc2ccccc21)c1ccc(Cl)c(Cl)c1 (configuration not stated)
inactive: HT-29 > 100 µM | CAKI-1 > 100 µM | SNB-19 > 100 µM | RPMI-8226 > 100 µM | SW-620 > 100 µM | SK-OV-3 > 100 µM | SK-MEL-2 > 100 µM | RXF 393 > 100 µM | SK-MEL-5 > 100 µM | UO-31 > 100 µM | 786-0 > 100 µM | EKVX 69.3 µM | A498 > 100 µM | ACHN > 100 µM | OVCAR-5 > 100 µM | HCT-116 > 100 µM | NCI-H522 > 100 µM | LOX IMVI > 100 µM

CC1=C(c2cc(C(=O)Nc3cc(C)ccc3C)nc(N)n2)Sc2ccccc2N1
inactive: HT-29 > 100 µM | CAKI-1 > 100 µM | SNB-19 > 100 µM | RPMI-8226 > 100 µM | SW-620 > 100 µM | SK-OV-3 > 100 µM | SK-MEL-2 > 100 µM | RXF 393 > 100 µM | SK-MEL-5 > 100 µM | UO-31 > 100 µM | 786-0 > 100 µM | Malme-3M > 100 µM | EKVX > 100 µM | A498 > 100 µM | ACHN > 100 µM | OVCAR-5 > 100 µM | HCT-116 > 100 µM | NCI-H522 > 100 µM | LOX IMVI > 100 µM

Cc1ccc([N+](=O)[O-])cc1NC(=O)/C(=N/NC(=S)NN)C1SC(=S)NC1=O (configuration not stated)
inactive: HT-29 > 100 µM | CAKI-1 > 100 µM | SNB-19 > 100 µM | RPMI-8226 > 100 µM | SW-620 > 100 µM | SK-OV-3 > 100 µM | SK-MEL-2 > 100 µM | RXF 393 > 100 µM | SK-MEL-5 > 100 µM | UO-31 > 100 µM | 786-0 > 100 µM | Malme-3M > 100 µM | EKVX > 100 µM | A498 > 100 µM | ACHN > 100 µM | OVCAR-5 > 100 µM | HCT-116 > 100 µM | NCI-H522 > 100 µM | LOX IMVI > 100 µM

COC(=O)Nc1nc2cc(Br)ccc2[nH]1
inactive: HT-29 16 µM | SNB-19 > 10 µM | RPMI-8226 51.9 µM | SW-620 37 µM | SK-OV-3 27.5 µM | SK-MEL-2 16.1 µM | RXF 393 25.8 µM | SK-MEL-5 8.75 µM | UO-31 > 100 µM | 786-0 53.2 µM | Malme-3M 37.1 µM | EKVX > 100 µM | A498 67.8 µM | ACHN 95.5 µM | OVCAR-5 60.1 µM | HCT-116 57 µM | NCI-H522 14.4 µM | LOX IMVI > 100 µM

COC(=O)c1c(OC(=O)c2ccccc2)noc1CC(=O)OC1C=CCCC1 (configuration not stated)
inactive: CAKI-1 > 100 µM | SNB-19 > 100 µM | RPMI-8226 > 100 µM | SW-620 > 100 µM | SK-OV-3 > 100 µM | SK-MEL-2 > 100 µM | RXF 393 93.1 µM | SK-MEL-5 27.5 µM | UO-31 66.4 µM | 786-0 > 100 µM | Malme-3M > 100 µM | A498 68.5 µM | ACHN > 100 µM | HCT-116 > 100 µM | NCI-H522 45.4 µM

CCCCC(C(=O)CCC(=O)Nc1ccc(Cl)c(Cl)c1)C(=O)C(C)C (configuration not stated)
inactive: HT-29 > 100 µM | CAKI-1 > 100 µM | SNB-19 > 100 µM | RPMI-8226 > 100 µM | SW-620 > 100 µM | SK-OV-3 > 100 µM | SK-MEL-2 95.5 µM | RXF 393 > 100 µM | SK-MEL-5 > 100 µM | UO-31 > 100 µM | 786-0 > 100 µM | Malme-3M > 100 µM | EKVX > 100 µM | A498 > 100 µM | ACHN 31.2 µM | OVCAR-5 32.3 µM | HCT-116 > 100 µM | NCI-H522 > 100 µM | LOX IMVI 63.2 µM

O=C1Nc2ccccc2C(=O)/C1=C/NC(=S)NCc1ccccc1
inactive: HT-29 > 100 µM | CAKI-1 > 100 µM | SNB-19 > 100 µM | SW-620 > 100 µM | SK-OV-3 > 100 µM | SK-MEL-2 > 100 µM | SK-MEL-5 > 100 µM | UO-31 > 100 µM | 786-0 > 100 µM | EKVX > 100 µM | NCI/ADR-RES > 100 µM | ACHN > 100 µM | OVCAR-5 > 100 µM | HCT-116 > 100 µM | LOX IMVI > 100 µM
